Source: US7595401B2, “Therapeutic compounds and their use in cancer” (Myriad Pharmaceuticals, Inc., priority 2006, dated 2009)

tested on: purified human Hsp90; assay: Binding Assay: fluorescence polarization with BODIPY-labeled geldanamycin; details: 5 μM compound, BODIPY-GM 10 nM, Hsp90 30 nM
Summary of the method: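 Fluorescence polarization competition with BODIPY-geldanamycin (10 nM final) and human Hsp90 (30 nM final) in HEPES-KOH pH 7.3 buffer with molybdate, NP-40, DTT; 2% DMSO, overnight at room temperature. Read 485/530 nm; percent inhibition from mP normalized to DMSO controls, fluorescent-compound points excluded.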

Row | % Inhibition at 5 μM Compound Concentration [%] | SMILES
1 | 0 | COc1ccc(OC)c(Sc2nc3c(N)ncn(CCc4cc(C)cc(C)c4)c-3n2)c1 [Example 133, 8-(2,5-dimethoxy-phenylsulfanyl)-3-[2-(3,5-dimethyl-phenyl)-ethyl]-3H-purine-6-ylamine]
2 | 18 | COc1ccc(OC)c(Sc2nc3c(N)ncn(CCc4ccsc4)c-3n2)c1 [Example 198, 8-(2,5-dimethoxy-phenylsulfanyl)-3-(2-thiophen-3-yl-ethyl)-3H-purin-6-ylamine]
3 | 20 | CS(=O)(=O)N1CCC(CCn2cnc(N)c3nc(Sc4cc5c(cc4Br)OCO5)nc2-3)CC1 [Example 366, 8-[(6-Bromo-1,3-benzodioxol-5-yl)thio]-3-{2-[1-(methylsulfonyl)piperidin-4-yl]ethyl}-3H-purin-6-amine]
4 | 63 | CC(=O)c1ccc(CCn2c(Sc3cc4c(cc3Br)OCO4)nc3c(N)ncnc32)cc1 [Example 159, 1-(4-{2-[6-Amino-8-(6-bromo-benzo[1,3]dioxol-5-ylsulfanyl)-purin-9-yl]-ethyl}-phenyl)-ethanone]
5 | 15 | CC(C)(C)OC(=O)NC(CCn1cnc(N)c2nc(Sc3cc4c(cc3Br)OCO4)nc1-2)C1CC1 (stereo not shown) [Example 663, tert-butyl (3-{6-amino-8-[(6-bromo-1,3-benzodioxol-5-yl)thio]-3H-purin-3-yl}-1-cyclopropylpropyl)carbamate]
6 | 21.0 | Nc1ncn(CCc2ccc3ccccc3c2)c2nc(Sc3cc4c(cc3Br)OCO4)nc1-2 [Example 303, 8-[(6-Bromo-1,3-benzodioxol-5-yl)thio]-3-[2-(2-naphthyl)ethyl]-3H-purin-6-amine]
7 | 14 | CC(C)(C)OC(=O)N1C=C(CCn2cnc(N)c3nc(Sc4cc5c(cc4Br)OCO5)nc2-3)CCC1 [Example 463, tert-Butyl 5-(2-{6-amino-8-[(6-bromo-1,3-benzodioxol-5-yl)thio]-3H-purin-3-yl}ethyl)-3,4-dihydropyridine-1(2 H)-carboxylate]
8 | 13.00 | CC(C)(C)n1nnnc1N1CCC(CCn2cnc(N)c3nc(Sc4cc5c(cc4Br)OCO5)nc2-3)CC1 [Example 615, 8-[(6-Bromo-1,3-benzodioxol-5-yl)thio]-3-{2-[1-(1-tert-butyl-1 H-tetrazol-5-yl)piperidin-4-yl]ethyl}-3 H-purin-6-amine]
9 | 0 | COc1ccc(OC)c(Sc2nc3c(N)ncn(CCc4c(F)cccc4Cl)c-3n2)c1 [Example 123, 3-[2-(2-chloro-6-fluoro-phenyl)-ethyl]-8-(2,5-dimethoxy-phenylsulfanyl)-3H-purine-6-ylamine]
10 | 54 | COc1ccc(OC)c(Sc2nc3c(N)ncnc3n2CCc2ccc(F)cc2F)c1 [Example 121, 9-[2-(2,4-Difluoro-phenyl)-ethyl]-8-(2,5-dimethoxy-phenylsulfanyl)-9H-purine-6-ylamine]

Row | SMILES | % Inhibition at 5 μM Compound Concentration [%]
11 | COc1ccc(OC)c(Sc2nc3c(N)ncnc3n2CCC2(F)C(F)(F)C(F)(F)C(F)(F)C(F)(F)C2(F)F)c1 [Example 245, 8-[(2,5-Dimethoxyphenyl)thio]-9-[2-(undecafluorocyclohexyl)ethyl]-9H-purin-6-amine] | 1

same assay, conditions: BODIPY-GM 10 nM, Hsp90 30 nM

Row | IC50 [nM] | SMILES
12 | 700 | Nc1ncnc2c1nc(Sc1cc3c(cc1Br)OCO3)n2CCCc1ccccc1 [Example 43, 8-(6-Bromo-benzo[1,3]dioxol-5-ylsulfanyl)-9-(3-phenyl-propyl)-9H-purin-6-ylamine]
13 | > 2000 | CC(=O)N1CCC(CCn2c(Sc3nc4c(Cl)cccc4s3)nc3c(N)ncnc32)CC1 [Example 653, 9-[2-(1-Acetylpiperidin-4-yl)ethyl]-8-[(4-chloro-1,3-benzothiazol-2-yl)thio]-9H-purin-6-amine]
14 | > 5000 | C[C@H](NC(=O)OC(C)(C)C)C(=O)N1CCC(CCn2c(Br)nc3c(N)ncnc32)CC1 [Example 772, tert-Butyl ((1S)-2-{4-[2-(6-amino-8-bromo-9H-purin-9-yl)ethyl]piperidin-1-yl}-1-methyl-2-oxoethyl)carbamate]
15 | 50 | Nc1ncnc2c1nc(Sc1cc3c(cc1Br)OCO3)n2CCC1CCN(C(=O)[C@@H]2CCCCN2)CC1 [Example 754, 8-[(6-Bromo-1,3-benzodioxol-5-yl)thio]-9-(2-{1-[(2S)-piperidin-2-ylcarbonyl]piperidin-4-yl}ethyl)-9H-purin-6-amine]
16 | > 25000 | Nc1ncnc2c1nc(Sc1ccc3c(c1)OC(F)(F)O3)n2CCc1ccccc1 [Example 292, 8-[(2,2-Difluoro-1,3-benzodioxol-5-yl)thio]-9-(2-phenylethyl)-9H-purin-6-amine]
17 | 40 | COc1ccc(OC)c(Sc2nc3c(N)ncnc3n2CCc2ccccc2Br)c1 [Example 141, 9-[2-(2-Bromo-phenyl)-ethyl]-8-(2,5-dimethoxy-phenylsulfanyl)-9H-purin-6-ylamine]
18 | > 2000 | C[C@@H](NC(=O)OC(C)(C)C)C(=O)N1CCC[C@@H](CCn2c(Sc3cc4c(cc3Br)OCO4)nc3c(N)ncnc32)C1 [Example 734, tert-Butyl{(1R)-2-[(3S)-3-(2-{6-amino-8-[(6-bromo-1,3-benzodioxol-5-yl)thio]-9H-purin-9-yl}ethyl)piperidin-1-yl]-1-methyl-2-oxoethyl}carbamate]
19 | 125 | Nc1ncnc2c1nc(Sc1cc3c(cc1Br)OCO3)n2CCC(N)C1CCCC1 (stereo not shown) [Example 691, 9-(3-Amino-3-cyclopentyl-propyl)-8-(6-bromo-benzo[1,3]dioxol-5-ylsulfanyl)-9H-purin-6-ylamine]
20 | > 2000 | CC1(C)C(C(=O)N2CCC(CCn3c(Sc4cc5c(cc4Br)OCO5)nc4c(N)ncnc43)CC2)C1(C)C [Example 520, 8-[(6-Bromo-1,3-benzodioxol-5-yl)thio]-9-(2-{1-[(2,2,3,3-tetramethylcyclopropyl)carbonyl]piperidin-4-yl}ethyl)-9 H-purin-6-amine]
21 | 140 | C[C@H](N)C(=O)N1CCC(CCn2c(Sc3cc4c(cc3Br)OCO4)nc3c(N)ncnc32)CC1 [Example 742, 9-(2-{1-[(2S)-2-Aminopropanoyl]piperidin-4-yl}ethyl)-8-[(6-bromo-1,3-benzodioxol-5-yl)thio]-9H-purin-6-amine]
22 | 250 | CC1(C)CC(CCn2c(Sc3cc4c(cc3Br)OCO4)nc3c(N)ncnc32)CC(C)(C)N1 [Example 354, 8-[(6-Bromo-1,3-benzodioxol-5-yl)thio]-9-[2-(2,2,6,6-tetramethylpiperidin-4-yl)ethyl]-9H-purin-6-amine]
23 | > 1000 | CCC(C)C(Cn1c(Sc2cc(OC)ccc2OC)nc2c(N)ncnc21)c1ccccc1 (stereo not shown) [Example 105, 8-(2,5-Dimethoxy-phenylsulfanyl)-9-(3-methyl-2-phenyl-pentyl)-9H-purin-6-ylamine]
24 | > 10000 | Nc1ncn(CCc2ccc(Cl)cc2F)c2nc(Sc3cc4c(cc3Br)OCO4)nc1-2 [Example 40, 8-(6-bromo-benzo[1,3]dioxol-5-ylsulfanyl)-3-[2-(4-chloro-2-fluoro-phenyl)-ethyl]-3H-purin-6-ylamine]
25 | > 25000 | CC(C)(C)OC(=O)N1CCCC(CCCn2c(Sc3cc4c(cc3Br)OCO4)nc3c(N)ncnc32)C1 (stereo not shown) [Example 637, tert-Butyl 3-(3-{6-amino-8-[(6-bromo-1,3-benzodioxol-5-yl)thio]-9 H-purin-9-yl}propyl)piperidine-1-carboxylate]
26 | > 25000 | Nc1ncnc2c1nc(Sc1cc3c(cc1Br)OCO3)n2CCc1ccc(-c2ccccc2)cc1 [Example 171, 9-(2-Biphenyl-4-yl-ethyl)-8-(6-bromo-benzo[1,3]dioxol-5-ylsulfanyl)-9H-purin-6-ylamine]
27 | 800 | CC(=O)c1ccc(CCn2c(Sc3cc4c(cc3Br)OCO4)nc3c(N)ncnc32)cc1 [Example 159, 1-(4-{2-[6-Amino-8-(6-bromo-benzo[1,3]dioxol-5-ylsulfanyl)-purin-9-yl]-ethyl}-phenyl)-ethanone]
28 | > 25000 | COc1ccc(OC)c(Sc2nc3c(N)ncnc3n2CC2(c3ccc(Cl)cc3)CC2)c1 [Example 279, 9-{[1-(4-Chlorophenyl)cyclopropyl]methyl}-8-[(2,5-dimethoxyphenyl)thio]-9H-purin-6-amine]
29 | 10000 | CCOc1cc(CCn2c(Sc3cc(OC)ccc3OC)nc3c(N)ncnc32)ccc1OC [Example 111, 8-(2,5-Dimethoxy-phenylsulfanyl)-9-[2-(3-ethoxy-4-methoxy-phenyl)-ethyl]-9H-purin-6-ylamine]
30 | 123 | CC(C)[C@H](N)C(=O)N1CCCC(CCn2c(Sc3cc4c(cc3Br)OCO4)nc3c(N)ncnc32)C1 (stereo partly drawn) [Example 745, 9-(2-{1-[(2S)-2-Amino-3-methylbutanoyl]piperidin-3-yl}ethyl)-8-[(6-bromo-1,3-benzodioxol-5-yl)thio]-9H-purin-6-amine]
31 | 200 | CC(C)(C)OC(=O)N1CCC(CCn2c(Sc3cc4c(cc3Br)OCO4)nc3c(N)ncnc32)CC1 [Example 341, tert-Butyl 4-(2-{6-amino-8-[(6-bromo-1,3-benzodioxol-5-yl)thio]-9H-purin-9-yl}ethyl)piperidine-1-carboxylate]
32 | > 5000 | COc1ccc2sc(Sc3nc4c(N)ncnc4n3CCC3CCN(C(C)=O)CC3)nc2c1 [Example 658, 9-[2-(1-Acetylpiperidin-4-yl)ethyl]-8-[(5-methoxy-1,3-benzothiazol-2-yl)thio]-9H-purin-6-amine]
33 | 2900 | CC(C)(C)OC(=O)N1CCC[C@H](CCn2c(Sc3cc4c(cc3Br)OCO4)nc3c(N)ncnc32)C1 [Example 392, tert-Butyl (3R)-3-(2-{6-amino-8-[(6-bromo-1,3-benzodioxol-5-yl)thio]-9H-purin-9-yl}ethyl)piperidine-1-carboxylate]
34 | 1600 | Nc1ncnc2c1nc(Sc1ccc3c(c1)OCO3)n2CCc1ccccc1Cl [Example 289, 8-(1,3-Benzodioxol-5-ylthio)-9-[2-(2-chlorophenyl)ethyl]-9H-purin-6-amine]
35 | 2800 | COc1ccc(C)cc1Sc1nc2c(N)ncnc2n1CCc1ccccc1Cl [Example 324, 9-[2-(2-Chlorophenyl)ethyl]-8-[(2-methoxy-5-methylphenyl)thio]-9H-purin-6-amine]
36 | 520 | COc1ccc(OC)c(Sc2nc3c(N)ncnc3n2CCc2ccc(F)cc2F)c1 [Example 121, 9-[2-(2,4-Difluoro-phenyl)-ethyl]-8-(2,5-dimethoxy-phenylsulfanyl)-9H-purine-6-ylamine]
37 | 8100 | COc1ccc(OC)c(Sc2nc3c(N)ncnc3n2CCN2CCNC(=O)C2)c1 [Example 634, 4-(2-{6-Amino-8-[(2,5-dimethoxyphenyl)thio]-9 H-purin-9-yl}ethyl)piperazin-2-one]
